System: HBsAg
Assay: In vitro combination study, HBsAg CLIA, MacSynergy II
Assay type: cell-based, hepatitis B virus
Method: In vitro combination studies were conducted using the method of Prichard & Shipman, 1990, Antiviral Res. 14(4-5):181-205, and Prichard, et al., MacSynergy II). The HepG2.2.15 cell culture system is a cell line derived from human hepatoblastoma HepG2 cells, that have been stably transfected with the adw2-subtype HBV genome (Sells, et al., 1987, Proc. Natl. Acad. Sci. U.S.A 84:1005-1009). HepG2.2.15 cells secrete Dane-like viral particles, produce HBV DNA, and produce the viral proteins, HBeAg and HBsAg.
Non-limiting examples of HBV RNA destabilizers are Compound A and Compound B. The EC50 values of these agents are shown in Table 12. Although inhibition of HBV DNA, RNA and proteins can be determined in the presence of the compounds of the invention and LNPs (both referred to herein as “agents”), the assay that can quantitatively measure the level of HBsAg was used in this study. To test the agent combinations, HepG2.2.15 (30,000 cells/well) were plated in 96 well tissue-culture treated microtiter plates in DMEM+L-Glutamine medium supplemented with 1% penicillin-streptomycin, 20 μg/mL geneticin (G418), 10% fetal bovine serum, and incubated in a humidified incubator at 37° C. and 5% CO2 overnight. The next day, the cells were replenished with fresh medium followed by the addition of compound of the invention (dissolved in 100% DMSO), and LNP (dissolved in 100% RPMI medium). The agents were added to cells in a checkerboard fashion. The microtiter cell plates were incubated for a total duration of 6 days in a humidified incubator at 37° C. and 5% CO2. On the 3rd day of incubation, the cells were replenished with fresh medium and agents. The serial dilutions spanned concentration ranges respective to the EC50 value of each agent, with the final DMSO concentration of the assay being 0.5%. In addition to combination testing of the agents in a checkerboard fashion, the compound and LNP were also tested alone.
Untreated positive control samples (0.5% DMSO in media) were included on each plate in multiple wells. Following a 6 day-incubation, media was removed from treated cells for use in an HBsAg chemiluminescence immunoassay (CLIA) (Autobio Diagnostics, Cat No. CL0310-2). An HBsAg standard curve was generated to verify that the levels of HBsAg quantification were within the detection limits of the assay. The remaining inhibitor-treated cells were assessed for cytotoxicity by determination of the intracellular adenosine triphosphate (ATP) using a Cell-Titer Glo reagent (Promega) as per manufacturers instructions and by microscopic analysis of the cells throughout the duration of inhibitor treatment. Cell viability was calculated as a percentage of the untreated positive control wells.
The plates were read using an EnVision multimode plate reader (PerkinElmer Model 2104). […] The RLU data from the single agent treated cells were analyzed using XL-Fit module in Microsoft Excel to determine EC50 values using a 4-parameter curve fitting algorithm.

[1] = Compound A 0.0001 μM, LNP-1 0.0025, 0.00079, 0.00025, 7.9E−05, 2.5E−05, 0 μM
[2] = Compound A 0.000316 μM, LNP-1 0.0025, 0.00079, 0.00025, 7.9E−05, 2.5E−05, 0 μM
[3] = Compound A 0.001 μM, LNP-1 0.0025, 0.00079, 0.00025, 7.9E−05, 2.5E−05, 0 μM
[4] = Compound A 0.00316 μM, LNP-1 0.0025, 0.00079, 0.00025, 7.9E−05, 2.5E−05, 0 μM
[5] = Compound A 0.1 μM, LNP-1 0.0025, 0.00079, 0.00025, 7.9E−05, 2.5E−05, 0 μM
[6] = Compound A 1.0E−05 μM, LNP-1 0.0025, 0.00079, 0.00025, 7.9E−05, 2.5E−05, 0 μM
[7] = Compound A 1.0E−05 μM, LNP-2 0.0025, 0.00079, 0.00025, 7.9E−05, 2.5E−05, 0 μM
[8] = Compound A 1.00E−06 μM, LNP-1 0.0025, 0.00079, 0.00025, 7.9E−05, 2.5E−05, 0 μM
[9] = Compound A 1.00E−06 μM, LNP-2 0.0025, 0.00079, 0.00025, 7.9E−05, 2.5E−05, 0 μM
[10] = Compound A 3.16E−06 μM, LNP-1 0.0025, 0.00079, 0.00025, 7.9E−05, 2.5E−05, 0 μM
[11] = Compound A 3.16E−06 μM, LNP-2 0.0025, 0.00079, 0.00025, 7.9E−05, 2.5E−05, 0 μM
[12] = Compound A 3.17E−05 μM, LNP-1 0.0025, 0.00079, 0.00025, 7.9E−05, 2.5E−05, 0 μM
[13] = Compound A 3.17E−05 μM, LNP-2 0.0025, 0.00079, 0.00025, 7.9E−05, 2.5E−05, 0 μM

COCCCOc1cc2c(nc1OC)-c1cc(=O)c(C(=O)O)cn1[C@H](C(C)C)C2 [Compound A]
Additive % Inhibition (HBsAg) versus negative control [1]: 47.52%
Avg % Inhibition (HBsAg) versus negative control [1]: 47.52%
Additive % Inhibition (HBsAg) versus negative control (Compound A 0.0001 μM, LNP-2 0.0025, 0.00079, 0.00025, 7.9E−05, 2.5E−05, 0 μM): 48.07%
Avg % Inhibition (HBsAg) versus negative control (Compound A 0.0001 μM, rows r14-r19 = LNP-2 0.0025, 0.00079, 0.00025, 7.9E−05, 2.5E−05, 0 μM): 48.07%
Additive % Inhibition (HBsAg) versus negative control [2]: 66.21%
Avg % Inhibition (HBsAg) versus negative control [2]: 66.21%
Additive % Inhibition (HBsAg) versus negative control (Compound A 0.000316 μM, LNP-2 0.0025, 0.00079, 0.00025, 7.9E−05, 2.5E−05, 0 μM): 74.6%
Avg % Inhibition (HBsAg) versus negative control (Compound A 0.000316 μM, rows r14-r19 = LNP-2 0.0025, 0.00079, 0.00025, 7.9E−05, 2.5E−05, 0 μM): 74.6%
Additive % Inhibition (HBsAg) versus negative control [3]: 84.38%
Avg % Inhibition (HBsAg) versus negative control [3]: 84.38%
Additive % Inhibition (HBsAg) versus negative control (Compound A 0.001 μM, LNP-2 0.0025, 0.00079, 0.00025, 7.9E−05, 2.5E−05, 0 μM): 87.41%
Avg % Inhibition (HBsAg) versus negative control (Compound A 0.001 μM, rows r14-r19 = LNP-2 0.0025, 0.00079, 0.00025, 7.9E−05, 2.5E−05, 0 μM): 87.41%
Additive % Inhibition (HBsAg) versus negative control [4]: 90.37%
Avg % Inhibition (HBsAg) versus negative control [4]: 90.37%
Additive % Inhibition (HBsAg) versus negative control (Compound A 0.00316 μM, LNP-2 0.0025, 0.00079, 0.00025, 7.9E−05, 2.5E−05, 0 μM): 92.04%
Avg % Inhibition (HBsAg) versus negative control (Compound A 0.00316 μM, rows r14-r19 = LNP-2 0.0025, 0.00079, 0.00025, 7.9E−05, 2.5E−05, 0 μM): 92.04%
Additive % Inhibition (HBsAg) versus negative control [5]: 92.38%
Avg % Inhibition (HBsAg) versus negative control [5]: 92.38%
Additive % Inhibition (HBsAg) versus negative control (Compound A 0.1 μM, LNP-2 0.0025, 0.00079, 0.00025, 7.9E−05, 2.5E−05, 0 μM): 93.74%
Avg % Inhibition (HBsAg) versus negative control (Compound A 0.1 μM, rows r14-r19 = LNP-2 0.0025, 0.00079, 0.00025, 7.9E−05, 2.5E−05, 0 μM): 93.74%
Additive % Inhibition (HBsAg) versus negative control [6]: 16.81%
Avg % Inhibition (HBsAg) versus negative control [6]: 16.81%
Additive % Inhibition (HBsAg) versus negative control [7]: 27.46%
Avg % Inhibition (HBsAg) versus negative control [7]: 27.46%
Additive % Inhibition (HBsAg) versus negative control [8]: 17.73%
Avg % Inhibition (HBsAg) versus negative control [8]: 17.73%
Additive % Inhibition (HBsAg) versus negative control [9]: 16%
Avg % Inhibition (HBsAg) versus negative control [9]: 16%
Additive % Inhibition (HBsAg) versus negative control [10]: 8.39%
Avg % Inhibition (HBsAg) versus negative control [10]: 8.39%
Additive % Inhibition (HBsAg) versus negative control [11]: 20.62%
Avg % Inhibition (HBsAg) versus negative control [11]: 20.62%
Additive % Inhibition (HBsAg) versus negative control [12]: 23.55%
Avg % Inhibition (HBsAg) versus negative control [12]: 23.55%
Additive % Inhibition (HBsAg) versus negative control [13]: 34.41%
Avg % Inhibition (HBsAg) versus negative control [13]: 34.41%
EC50 (HepG2.2.15 cell culture, HBsAg quantitation by CLIA, read-out: 1st Inhibitor EC50): 1 nM

— patent publication US11013726B2 (Arbutus Biopharma Corporation, priority 2016, dated 2021)
